From patent US5770382A, “Tricyclic retinoids, methods for their production and use” (Ligand Pharmaceuticals, Inc., priority 1995, dated 1998)
“Also recorded” adds a separate entry of the source.

Key:
RAR and RXR receptors = experiment: Co-transfection assay, summary for RARs and RXRs; format: cell-based; conditions: for potency profile in comparison to 9-cis retinoic acid (in words): versus 9-cis
Description: (§1) Utilizing the "cis-trans" or "co-transfection" assay described by Evans et al., Science, 240:889-95 (May 13, 1988), the disclosure of which is herein incorporated by reference, the retinoid compounds of the present invention were tested and found to have strong, specific activity as either selective RAR agonists, selective RXR agonists, or as pan-agonist activators of both RAR and RXR receptors. This assay is described in further detail in U.S. Pat. Nos. 4,981,784 and 5,071,773, the disclosures of which are incorporated herein by reference.
(§2) The co-transfection assay provides a method for identifying functional agonists which mimic, or antagonists which inhibit, the effect of native hormones, and quantifying their activity for responsive IR proteins. In this regard, the co-transfection assay mimics an in vivo system in the laboratory. Importantly, activity in the co-transfection assay correlates very well with known in vivo activity, such that the co-transfection assay functions as a qualitative and quantitative predictor of a tested compounds Ln vivo pharmacology. See, e.g., T. Berger et al. 41 J. Steroid Biochem. Molec. Biol. 733 (1992), the disclosure of which is herein incorporated by reference.
(§3) In the co-transfection assay, a cloned cDNA for an IR (e.g., human RARα, RARβ, RXRγ) under the control of a constitutive promoter (e.g., the SV 40 promoter) is introduced by transfection (a procedure to induce cells to take up foreign genes) into a background cell substantially devoid of endogenous IRs. This introduced gene directs the recipient cells to make the IR protein of interest. A second gene is also introduced (co-transfected) into the same cells in conjunction with the IR gene. This second gene, comprising the cDNA for a reporter protein, such as firefly luciferase (LUC), controlled by an appropriate hormone responsive promoter containing a hormone response element (HRE). This reporter plasmid functions as a reporter for the transcription-modulating activity of the target IR. Thus, the reporter acts as a surrogate for the products (mRNA then protein) normally expressed by a gene under control of the target receptor and its native hormone.
(§4) The co-transfection assay can detect small molecule agonists or antagonists of target IRs. Exposing the transfected cells to an agonist ligand compound increases reporter activity in the transfected cells. This activity can be conveniently measured, e.g., by increasing luciferase production, which reflects compound-dependent, IR-mediated increases in reporter transcription. […] . Increasing concentrations of a suspected antagonist will decrease the reporter signal (e.g., luciferase production). The co-transfection assay is therefore useful to detect both agonists and antagonists of specific IRs. Furthermore, it determines not only whether a compound interacts with a particular IR, but whether this interaction mimics (agonizes) or blocks (antagonizes) the effects of the native regulatory molecules on target gene expression, as well as the specificity and strength of this interaction.
To determine RAR and/or RXR agonist activity of the compounds of the present invention, the CV-1 cells were transiently transfected by calcium phosphate coprecipitation according to the procedure of Berger et al., 41 J.Steroid Biochem. Mol. Biol., 733 (1992) with the following receptor expressing plasmids: pRShRARα: Giguere et al., 330 Nature, 624 (1987); pRShRARβ and pRShRARγ, Ishikawa et al., 4 Mol. Endocrin., 837 (1990); pRShRXRα, Mangelsdorf et al., 345 Nature, 224 (1990); and pRSmRXRβ and pRSmRXRγ, Mangelsdorf et al., 6 Genes & Devel., 329 (1992), the disclosures of which are herein incorporated by reference.

RARs = experiment: Co-transfection assay, summary for the RARs; format: cell-based, human
Description: as §1, §2, §3
as §4, with “Furthermore, it determines not only whether a compound interacts with a particular IR, but whether this interaction mimics (agonizes) or blocks (antagonizes) the effects of the native regulatory molecules on target gene expression, as well as the specificity and strength of this interaction.” left out

RXRα = molecular target: T1, RXRα (Homo sapiens, UniProt P19793); experiment: Co-transfection assay, RXRα agonist activity; format: cell-based; conditions: CV-1 cells, 40 hours; read-out: RXRα Pot (potency, EC50)
T1 construct: expressed in transfected cells; host or cells: CV-1 (African green monkey kidney fibroblasts)
T1 sequence (P19793 1-462): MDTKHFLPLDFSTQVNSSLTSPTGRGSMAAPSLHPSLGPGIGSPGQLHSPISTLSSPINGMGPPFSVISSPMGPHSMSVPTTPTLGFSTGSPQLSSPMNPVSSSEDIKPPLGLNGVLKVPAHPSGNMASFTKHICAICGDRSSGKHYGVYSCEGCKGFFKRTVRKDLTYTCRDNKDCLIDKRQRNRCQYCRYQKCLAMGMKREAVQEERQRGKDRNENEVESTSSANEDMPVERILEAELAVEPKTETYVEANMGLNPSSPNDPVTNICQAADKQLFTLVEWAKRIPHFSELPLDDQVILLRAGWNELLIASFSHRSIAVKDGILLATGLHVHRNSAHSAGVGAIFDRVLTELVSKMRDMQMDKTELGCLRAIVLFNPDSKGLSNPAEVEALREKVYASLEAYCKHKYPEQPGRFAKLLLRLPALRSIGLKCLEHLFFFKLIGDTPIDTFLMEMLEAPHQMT

[1] = test system: ornithine decarboxylase (ODC); conditions: literature; cited from earlier work

| agonist type on RAR and RXR receptors (in words) (RAR and RXR receptors) | potency profile in comparison to 9-cis retinoic acid (in words) (RAR and RXR receptors) | Structure (SMILES) | RAR activity / selectivity (in words) (RARs) | further results |
| --- | --- | --- | --- | --- |
| pan-agonist | superior potency profiles | CC(/C=C/C=C1/CCCc2cc3c(cc21)C(C)(C)CCC3(C)C)=C\C(=O)O [Compound 101b, (2E,4E)-3-Methyl-6-[(Z)-3,4,5,6,7,8-hexahydro-5,5,8,8-tetramethyl-2H-anthracen-1-ylidene]hexa-2,4-dienoic acid] | extremely potent RAR active | – |
| pan-agonist | superior potency profiles | CC(/C=C/C=C1/CCOc2cc3c(cc21)C(C)(C)CCC3(C)C)=C\C(=O)O [Compound 144b] | extremely potent RAR active | – |

More lines, now with the values behind:

| Structure (SMILES) | agonist type on RAR and RXR receptors (in words) (RAR and RXR receptors) | potency profile in comparison to 9-cis retinoic acid (in words) (RAR and RXR receptors) | RAR activity / selectivity (in words) (RARs) | further results |
| --- | --- | --- | --- | --- |
| CC(/C=C/CC1CCCc2cc3c(cc21)C(C)(C)CCC3(C)C)=C\C(=O)O (racemic) [Compound 124b, (2E,4E)-3-Methyl-6-(1,2,3,4,5,6,7,8-octahydro-5,5,8,8-tetramethylanthracen-1-yl)hexa-2,4-dienoic acid] | pan-agonist | superior potency profiles | – | – |
| CC(/C=C/C=C1\CCCc2cc3c(cc21)C(C)(C)CCC3(C)C)=C\C(=O)O [Compound 109b, (2E,4E)-3-Methyl-6-[(E)-3,4,5,6,7,8-hexahydro-5,5,8,8-tetramethyl-2H-anthracen-1-ylidene]hexa-2,4-dienoic acid] | – | – | extremely potent RAR active; also recorded: RAR selective | – |
| CC(/C=C/C=C1\CCOc2cc3c(cc21)C(C)(C)CCC3(C)C)=C\C(=O)O [Compound 119b, (2E,4E)-3-Methyl-6-[(E)-2,3,6,7,8,9-hexahydro-6,6,9,9-tetramethyl-benzo[g]chromen-4-ylidene]hexa-2,4-dienoic acid] | – | – | extremely potent RAR active; also recorded: RAR selective | – |
| CCN1CC\C(=C/C=C/C(C)=C/C(=O)O)c2cc3c(cc21)C(C)(C)CCC3(C)C [Compound 147b, (2E,4E)-3-methyl-6-[(E)1-ethyl-6,6,9,9-tetramethyl-2,3,6,7,8,9-hexahydro-1H-benzo[g]quinolin-4-ylidene]hexa-2,4-dienoic acid] | – | – | – | EC50 (RXRα): > 10 µM |
| CC1=C(/C=C/C(C)=C/C=C/C(C)=C/C(=O)O)C(C)(C)CCC1 [retinoic acid] | – | – | – | inhibition of TPA induction of ODC (in words) [1]: inhibits this induction of ODC by TPA |
